Measured values: the NIST ThermoML archive (doi:10.1021/je0501890)

Assay: xn = mol fraction of the nth substance listed
Details: 101.33 kPa, Liquid

ClC=C(Cl)Cl [trichloroethene] + CCCCCCCO
Details	mass density, 293.15 K [kg/m3]	mass density, 298.15 K [kg/m3]	mass density, 303.15 K [kg/m3]	viscosity, 293.15 K [mPa·s]	viscosity, 298.15 K [mPa·s]	viscosity, 303.15 K [mPa·s]
x2 = 0.0507	1412.78	1404.82	1396.73	–	–	–
x2 = 0.0927	–	–	–	0.671	0.635	0.6
x2 = 0.0992	1367.53	1359.9	1352.18	–	–	–
x2 = 0.1569	1317.05	1309.82	1302.52	–	–	–
x2 = 0.201	–	–	–	0.883	0.826	0.763
x2 = 0.2026	1279.18	1272.23	1265.25	–	–	–
x2 = 0.2558	1237.46	1230.87	1224.15	–	–	–
x2 = 0.256	–	–	–	1.017	0.949	0.875
x2 = 0.304	–	–	–	1.158	1.073	0.989
x2 = 0.3109	1196.47	1190.18	1183.85	–	–	–
x2 = 0.3618	1160.63	1154.67	1148.63	–	–	–
x2 = 0.3997	1134.97	1129.21	1123.37	–	–	–
x2 = 0.4057	–	–	–	1.535	1.397	1.28
x2 = 0.43	1115.18	1109.55	1103.85	–	–	–
x2 = 0.5098	–	–	–	2.05	1.838	1.662
x2 = 0.51	1065.33	1060.09	1054.79	–	–	–
x2 = 0.5508	–	–	–	2.307	2.046	1.839
x2 = 0.5514	1040.91	1035.82	1030.7	–	–	–
x2 = 0.6022	–	–	–	2.648	2.342	2.082
x2 = 0.6149	1005.06	1000.28	995.43	–	–	–
x2 = 0.6574	982.15	977.54	972.87	–	–	–
x2 = 0.7071	956.39	951.95	947.47	–	–	–
x2 = 0.7077	–	–	–	3.52	3.065	2.672
x2 = 0.7571	931.38	927.1	922.8	–	–	–
x2 = 0.8016	909.97	905.84	901.69	–	–	–
x2 = 0.802	–	–	–	4.51	3.865	3.333
x2 = 0.8699	–	–	–	5.313	4.537	3.89
x2 = 0.8728	877.14	873.27	869.35	–	–	–
x2 = 0.893	–	–	–	5.624	4.804	4.112
x2 = 0.9405	847.47	843.79	840.09	–	–	–

ClC(Cl)=C(Cl)Cl [tetrachloroethene] + CCCCCCCO
Details	mass density, 293.15 K [kg/m3]	mass density, 298.15 K [kg/m3]	mass density, 303.15 K [kg/m3]	viscosity, 293.15 K [mPa·s]	viscosity, 298.15 K [mPa·s]	viscosity, 303.15 K [mPa·s]
x2 = 0.0564	1560.55	1552.56	1544.51	–	–	–
x2 = 0.098	1516.9	1509.2	1501.4	–	–	–
x2 = 0.1052	–	–	–	1.064	0.993	0.961
x2 = 0.152	1462.26	1454.91	1447.45	–	–	–
x2 = 0.2	–	–	–	1.285	1.186	1.116
x2 = 0.2001	1415.53	1408.42	1401.24	–	–	–
x2 = 0.248	1370.53	1363.81	1356.93	–	–	–
x2 = 0.2939	–	–	–	1.569	1.441	1.321
x2 = 0.2944	1328.47	1321.91	1315.32	–	–	–
x2 = 0.3527	1277.56	1271.32	1265.06	–	–	–
x2 = 0.3983	1239.09	1233.07	1227.04	–	–	–
x2 = 0.4073	–	–	–	2.024	1.83	1.661
x2 = 0.4484	1198.21	1192.43	1186.64	–	–	–
x2 = 0.4612	–	–	–	2.292	2.05	1.851
x2 = 0.4982	–	–	–	2.509	2.231	2.002
x2 = 0.5051	1153.53	1148.07	1142.54	–	–	–
x2 = 0.5477	1121.03	1115.76	1110.45	–	–	–
x2 = 0.55	–	–	–	2.827	2.501	2.222
x2 = 0.5992	–	–	–	3.169	2.798	2.462
x2 = 0.6002	1082.09	1077.06	1071.96	–	–	–
x2 = 0.6503	1046.14	1041.3	1036.45	–	–	–
x2 = 0.6926	–	–	–	3.922	3.397	2.958
x2 = 0.7419	983.09	978.66	974.19	–	–	–
x2 = 0.8016	943.84	939.63	935.38	–	–	–
x2 = 0.8034	–	–	–	4.966	4.249	3.631
x2 = 0.8533	910.96	906.93	902.87	–	–	–
x2 = 0.8578	–	–	–	5.52	4.704	4.03
x2 = 0.8961	–	–	–	5.942	5.052	4.324
x2 = 0.8963	884.26	880.43	876.54	–	–	–
x2 = 0.9453	854.68	851.01	847.3	–	–	–
